Measured values as given in US20230099293A1, “OGA INHIBITOR COMPOUNDS” (priority 2019, published 2023).

Key:
[1] = molecular target: T1, recombinant human Meningioma Expressed Antigen 5 (MGEA5), also referred to as O-GlcNAcase (OGA) (Homo sapiens, UniProt O60502); test: OGA biochemical assay (inhibition of FM-GlcNAc hydrolysis, fluorescence); details: for IC50: Enzymatic hOGA; for Emax: read-out: Enzymatic Emax (%)
T1 construct: Full length OGA enzyme was purchased at OriGene (cat #TP322411); purchased OriGene TP322411
T1 sequence (O60502 1-916): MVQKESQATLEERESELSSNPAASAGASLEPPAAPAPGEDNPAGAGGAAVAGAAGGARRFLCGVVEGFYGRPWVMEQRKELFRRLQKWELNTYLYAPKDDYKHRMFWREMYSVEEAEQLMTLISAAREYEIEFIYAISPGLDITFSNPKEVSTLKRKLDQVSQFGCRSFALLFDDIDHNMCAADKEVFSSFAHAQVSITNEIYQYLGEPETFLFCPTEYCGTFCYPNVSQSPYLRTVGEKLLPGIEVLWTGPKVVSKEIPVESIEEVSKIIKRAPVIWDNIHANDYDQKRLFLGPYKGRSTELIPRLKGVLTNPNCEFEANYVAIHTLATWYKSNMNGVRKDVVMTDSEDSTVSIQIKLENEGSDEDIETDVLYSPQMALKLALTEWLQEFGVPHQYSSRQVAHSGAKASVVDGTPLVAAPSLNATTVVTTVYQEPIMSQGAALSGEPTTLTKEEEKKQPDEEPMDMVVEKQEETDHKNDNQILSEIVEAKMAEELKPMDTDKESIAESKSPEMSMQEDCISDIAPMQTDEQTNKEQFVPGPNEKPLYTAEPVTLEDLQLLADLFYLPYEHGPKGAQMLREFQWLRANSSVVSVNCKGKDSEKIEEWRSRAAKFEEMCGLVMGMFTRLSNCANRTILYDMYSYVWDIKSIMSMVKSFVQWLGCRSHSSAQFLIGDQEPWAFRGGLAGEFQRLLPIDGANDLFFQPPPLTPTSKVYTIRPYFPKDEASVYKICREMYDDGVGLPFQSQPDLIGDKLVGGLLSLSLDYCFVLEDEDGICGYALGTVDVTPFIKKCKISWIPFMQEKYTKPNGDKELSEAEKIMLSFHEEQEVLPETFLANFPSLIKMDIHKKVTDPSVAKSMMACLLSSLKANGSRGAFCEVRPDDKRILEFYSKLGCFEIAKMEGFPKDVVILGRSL
Summary of the method: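 Full-length recombinant OGA at 2 nM with 100 uM FM-GlcNAc in 200 mM citrate/phosphate buffer, 0.005% Tween-20. IC50 and Hill coefficient from curve fit between no-inhibitor and saturating standard-inhibitor controls.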

[2] = molecular target: T2, hOGA (Homo sapiens, UniProt O60502); test: OGA cellular assay (ICC detection of O-GlcNAcylated proteins in HEK293 cells inducible for P301L mutant human Tau); assay type: cell-based; design: Emax: dose or concentration left out as unconfirmed; details: for EC50: Cellular hOGA; for Emax: HEK293, read-out: Cellular Emax (%)
T2 construct: endogenous in cells; host or cells: HEK293 cells inducible for P301L mutant human Tau (isoform 2N4R)
T2 sequence (O60502 1-916): T1 sequence (O60502 1-916)
Summary of the method: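 HEK293 cells inducible for P301L Tau (2N4R), seeded in low-glucose medium, treated with compound for 6 h at 0.2% DMSO. After PFA fixation, O-GlcNAcylated proteins stained with CTD110.6 and imaged (488 nm intensity, 9 fields/well); Hoechst nuclei count for toxicity. IC50 by non-linear regression, Thiamet-G 200 μM as maximum.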

[3] = pIC50, Table 5, full length OGA 2 nM, FM-GlcNAc 100 uM, 6 h at room temperature
[4] = pEC50, Table 5, HEK293 P301L Tau cells, 6 hours incubation, O-GlcNAcylation readout
[5] = Table 5, full length OGA 2 nM, FM-GlcNAc 100 uM, 6 h at room temperature
[6] = Table 5, HEK293 P301L Tau cells, 6 hours incubation, O-GlcNAcylation readout
[7] = second table, averaged values over several runs, obtained after recalibration of the equipment
[8] = pIC50, second table, averaged values over several runs, obtained after recalibration of the equipment
[9] = pEC50, second table, averaged values over several runs, obtained after recalibration of the equipment

Compound | IC50 [1, 3] [nM] | Emax [1] [%] | EC50 [2, 4] [nM] | Emax [2] [%] | melting point [°C] | Enzymatic hOGA; pIC50 [1, 5] | Cellular hOGA; pEC50 [2, 6] | Cellular hOGA; pEC50 [2, 7] | Enzymatic hOGA; pIC50 [1, 7] | IC50 [1, 8] [nM] | EC50 [2, 9] [nM]
CCCCn1ncc2c(Nc3c(Cl)cccc3Cl)nccc21 [Compound 66, 1-Butyl-N-(2,6-dichlorophenyl)pyrazolo[4,3-c]pyridin-4-amine] | 85.1 | 104 | > 1000 | 45 | 144.7 |  |  |  |  |  | 
Cc1cc(C(F)(F)F)cc(C)c1Nc1nccc2c1ncn2-c1ncc(F)cn1 [Compound 69] |  | 80 |  | 6 | 198.2 | 6.14 | <6 | 6.14 |  |  | 
Cc1cc(C(F)(F)F)cc(C)c1Nc1nccc2c1ncn2CCC(=O)N(C)C [Compound 70] |  | 7 |  | 7 | 194.9 | <5 | <6 | <6 |  |  | 
Cc1cc(C(F)(F)F)cc(C)c1Nc1nccc2c1ncn2C(C)(C)C(=O)N(C)C [Compound 71] |  | 6 |  | 27 | 260.1 | <5 | <6 | <6 |  |  | 
Cc1cc(C(F)(F)F)cc(C)c1Nc1nccc2c1ncn2C(C)C(=O)N(C)C (stereo not shown) [Compound 72] |  | 92 |  | 2 | 199.9 | 6.26 | <6 | <6 |  |  | 
Cc1cc(C(F)(F)F)cc(C)c1Nc1nccc2c1ncn2C1CCCCO1 (stereo not shown) [Compound 73] |  | 100 |  | 42 | 169.8 | 6.77 | <6 | 6.42 | 6.91 |  | 
COCCn1cnc2c(Nc3c(C)cc(C(F)(F)F)cc3C)nccc21 [Compound 74] |  | 83 |  | 6 | 161.5 | 5.64 | <6 | <6 |  |  | 
Cc1cc(C(F)(F)F)cc(C)c1Nc1ncc(C2CC2)c2c1ncn2CC(=O)N(C)C [Compound 75] |  | 97 |  | 22 | 246.7 | 6.28 | <6 |  |  |  | 
Cc1cc(C(F)(F)F)cc(C)c1Nc1nccc2c1ncn2CC(=O)N(C)CC(F)(F)F [Compound 77] |  | 103 |  | 67 | 228.3 | 7.23 | 6.37 |  |  |  | 
Cc1cc(F)c(F)c(C)c1Nc1nccc2c1ncn2CC(=O)N(C)C [Compound 78] |  |  |  |  | 198.1 |  |  |  |  | 21.4 | 427
Cc1cc(F)c(F)c(C)c1Nc1nccc2c1ncn2CC(=O)N1CCC1 [Compound 79] |  |  |  |  | 214.8 |  |  |  |  | 251 | > 1000
Cc1cc(Cn2cnc3c(Nc4c(C)cc(C(F)(F)F)cc4C)nccc32)no1 [Compound 80] | 8.91 | 104 |  | 94 | 164.7 |  |  |  |  |  | 
Cc1cc(C(F)(F)F)cc(C)c1Nc1ncc(C)c2c1cnn2CC(=O)N(C)C [Compound 81, 2-(4-((2,6-Dimethyl-4-(trifluoromethyl)phenyl)amino)-7-methyl-1H-pyrazolo[4,3-c]pyridin-1-yl)-N,N-dimethylacetamide] | 69.2 | 100 | 537 | 66 | 211.6 |  |  |  |  |  | 151
Cc1cc(C(F)(F)F)cc(C)c1Nc1nccc2c1ncn2-c1cn(C)cn1 [Compound 82, N-(2,6-dimethyl-4-(trifluoromethyl)phenyl)-1-(1-methyl-1H-imidazol-4-yl)-1H-imidazo[4,5-c]pyridin-4-amine] | 174 | 97 |  |  | 184.8 |  |  |  |  | 170 | > 1000
